Test results taken from patent EP4582413A1, “ARYLTETRAHYDROPYRIDINE COMPOUND AND PEST CONTROL AGENT” (priority 2022, dated 2024).

Key:
Format in all cases: in vivo
[1] = tested on: cat fleas (Ctenocephalides felis); experiment: whole plant or invertebrate; settings: 72 h, read-out: death rate
How it was run: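 Glass containers (25 cm² inner surface) were coated with 250 µl of a 1000 ppm acetone solution, and the acetone was evaporated to leave a dry film. Five mixed-sex adult fleas were confined per container at 25°C. Mortality was scored after 3 days.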

[2] = tested on: diamondback moths (Plutella xylostella); experiment: Insecticidal test for diamondback moths; settings: Plutella xylostella, 144 h; 500 ppm chemical solution, leaves soaked, third-instar larvae, six days, 25°C; read-out: death rate
How it was run: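 Leaves dipped about 10 s in a 500 ppm aqueous dilution of an emulsion formulation with spreader, then air-dried. Five third-instar larvae released per dish and held at 25 °C. Tested in duplicate.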

[3] = tested on: brown rice planthoppers (Nilaparvata lugens); experiment: Insecticidal test for brown rice planthoppers; settings: Nilaparvata lugens, 144 h; 500 ppm chemical solution, rice leaf sheaths soaked, third-instar larvae, six days, 25°C; read-out: death rate
How it was run: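 Rice leaf sheaths dipped ~10 s in 500 ppm compound solution (emulsion diluted in water with spreader), air-dried, then infested with five third-instar larvae per tube at 25 °C. Mortality scored after 6 days, death rate calculated, in duplicate.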

[4] = tested on: western flower thrips (Frankliniella occidentalis); experiment: Insecticidal activity against western flower thrips; settings: Frankliniella occidentalis, 48 h; 500 ppm chemical solution sprinkled (2.5 mg/cm^2), larvae on common bean leaf, after 2 days; read-out: death rate
How it was run: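 Bean leaf squares on wet filter paper inoculated with 20 larvae. Compound emulsion diluted with spreader-containing water to 500 ppm and sprayed at 2.5 mg/cm^2 by rotary tower. Run in duplicate.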

[5] = tested on: green peach aphids (Myzus persicae); experiment: Insecticidal test for green peach aphids; settings: Myzus persicae, foliar, 144 h; 500 ppm chemical solution sprinkled (2.5 mg/cm^2), wingless imagoes on leaf disc, six days, 25°C; read-out: death rate
Method: Wet absorbent cotton was laid on each glass dish having an inner diameter of 3 cm, a Chinese olive leaf cut into a circle having a diameter of 3 cm was placed thereon, and four wingless green peach aphids (Myzus persicae) imagoes were released. After a day, a 10% by mass emulsion of the presently invented compound prepared according to the above formulation example for an emulsion was diluted with water containing a spreader to prepare a chemical solution having a concentration of 500 ppm. The chemical solution prepared was sprinkled (2.5 mg/cm^2) with a rotary tower sprinkler, and the dishes were capped and accommodated in a thermostatic room at 25°C. […] The test was carried out in duplicate.

| Compound | mortality at 10 µg/cm2 [1] | mortality at 500 µg/mL [2] | mortality at 500 µg/mL [3] | mortality at 500 µg/mL [4] | mortality at 500 µg/mL [5] |
| --- | --- | --- | --- | --- | --- |
| O=C(Nc1ccc(F)cc1)C1=C(O)CC(c2ccc(C(F)(F)F)c(-c3ccc(F)nc3)c2)NC1=O (centres unmarked) [1-001, N-(4-fluorophenyl)-6-[3-(6-fluoropyridin-3-yl)-4-(trifluoromethyl)phenyl]-4-hydroxy-2-oxo-1,2,5,6-tetrahydropyridine-3-carboxamide] | ≥ 50% | ≥ 90% | ≥ 90% | ≥ 90% | ≥ 90% |
| O=C(Nc1ccc(F)cc1)C1=C(O)CC(c2ccc(C(F)(F)F)c(-c3ccccc3)c2)NC1=O (centres unmarked) [1-004] | ≥ 50% | ≥ 90% |  |  | ≥ 90% |
| O=C(Nc1ccc(F)cc1)C1=C(O)CC(c2ccc(C(F)(F)F)c(-c3ccccc3F)c2)NC1=O (centres unmarked) [1-005] | ≥ 50% | ≥ 90% |  | ≥ 90% | ≥ 90% |
| CSc1ccccc1-c1cc(C2CC(O)=C(C(=O)Nc3ccc(F)cc3)C(=O)N2)ccc1C(F)(F)F (centres unmarked) [1-008] | ≥ 50% | ≥ 90% |  | ≥ 90% | ≥ 90% |
| CSc1ccc(-c2cc(C3CC(O)=C(C(=O)Nc4ccc(F)cc4)C(=O)N3)ccc2C(F)(F)F)cc1 (centres unmarked) [1-009] | ≥ 50% | ≥ 90% |  | ≥ 90% | ≥ 90% |
| CC(=O)c1cccc(-c2cc(C3CC(O)=C(C(=O)Nc4ccc(F)cc4)C(=O)N3)ccc2C(F)(F)F)c1 (centres unmarked) [1-011] | ≥ 50% | ≥ 90% |  | ≥ 90% | ≥ 90% |
| CC(=O)c1ccc(-c2cc(C3CC(O)=C(C(=O)Nc4ccc(F)cc4)C(=O)N3)ccc2C(F)(F)F)cc1 (centres unmarked) [1-012] | ≥ 50% |  |  |  | ≥ 90% |
| O=C(Nc1ccc(F)cc1)C1=C(O)CC(c2ccc(C(F)(F)F)c(-c3ccncc3)c2)NC1=O (centres unmarked) [1-014] | ≥ 50% | ≥ 90% | ≥ 90% | ≥ 90% | ≥ 90% |
| O=C(Nc1ccc(F)cc1)C1=C(O)CC(c2ccc(C(F)(F)F)c(-c3ccoc3)c2)NC1=O (centres unmarked) [1-015] | ≥ 50% | ≥ 90% |  | ≥ 90% | ≥ 90% |
| COc1ccccc1-c1cc(C2CC(O)=C(C(=O)Nc3ccc(F)cc3)C(=O)N2)ccc1C(F)(F)F (centres unmarked) [1-016] | ≥ 50% | ≥ 90% |  | ≥ 90% | ≥ 90% |
| COc1cccc(-c2cc(C3CC(O)=C(C(=O)Nc4ccc(F)cc4)C(=O)N3)ccc2C(F)(F)F)c1 (centres unmarked) [1-017] | ≥ 50% | ≥ 90% |  | ≥ 90% | ≥ 90% |
| CS(=O)(=O)c1ccc(-c2cc(C3CC(O)=C(C(=O)Nc4ccc(F)cc4)C(=O)N3)ccc2C(F)(F)F)cc1 (centres unmarked) [1-019] | ≥ 50% | ≥ 90% |  | ≥ 90% | ≥ 90% |
| N#Cc1ccc(-c2cc(C3CC(O)=C(C(=O)Nc4ccc(F)cc4)C(=O)N3)ccc2C(F)(F)F)cc1 (centres unmarked) [1-023] | ≥ 50% | ≥ 90% |  | ≥ 90% | ≥ 90% |
| O=C(Nc1ccc(Cl)nc1)C1=C(O)CC(c2cnc(Cl)c(-c3ccc(F)nc3)c2)NC1=O (centres unmarked) [2-010] | ≥ 50% | ≥ 90% | ≥ 90% | ≥ 90% | ≥ 90% |
| O=C(Nc1ccc(Cl)cc1)C1=C(O)CC(c2cnc(Cl)c(-c3ccc(F)nc3)c2)NC1=O (centres unmarked) [2-035, 6'-chloro-N-(4-chlorophenyl)-6"-fluoro-4-hydroxy-6-oxo-1,2,3,6-tetrahydro-[2,3':5',3"-terpyridine]-5-carboxamide] | ≥ 50% | ≥ 90% | ≥ 90% | ≥ 90% | ≥ 90% |
| O=C(Nc1ccc(F)cc1)C1=C(O)CC(c2cnc(Cl)c(-c3cncc(F)c3)c2)NC1=O (centres unmarked) [2-058] | ≥ 50% | ≥ 90% | ≥ 90% | ≥ 90% | ≥ 90% |
| O=C(Nc1ccc(F)nc1)C1=C(O)CC(c2cnc(Cl)c(-c3ccccc3)c2)NC1=O (centres unmarked) [2-091] | ≥ 50% | ≥ 90% | ≥ 90% | ≥ 90% | ≥ 90% |
